Literature values as cited in EP0642530B1, “DERIVATIVES OF DOLASTATIN” (BASF Aktiengesellschaft, priority 1992, dated 1993).

Settings: background statement, no method given

**Q.** Which stability to acid does the source give for Dolastatin-10 here?
**A.** unstable to acid
